Reference: patent US20150140085A1, “FORMULATIONS COMPRISING IBRUTINIB” (PRINCIPIA BIOPHARMA INC., priority 2012, published 2015)

Key:
[1] = Determination of bioavailability, stomach (oral gavage) v. intraduodenal administration; assay type: in vivo, Sprague dawley rats; conditions: 20 mg/kg in Captex 355, fed female rats; for AUC / Cmax: plasma
Experimental: Fed female Sprague dawley rats, 225-250 g with surgically implanted intra-duodenal catheters were obtained commercially. Rats were dosed solutions of ibrutinib via bolus injection: oral gavage was done to measure exposure after oral dosing, or dosing via administration through the intra-duodenal catheter to measure exposure bypassing the stomach. Ibrutinib was dosed at 20 mg/kg at a dose volume of 2 ml/kg. Blood was withdrawn at time points out to 24 hours and Ibrutinib quantitated via LC/MS/MS to obtain plasma concentrations. PK parameters were calculated via commercially available software and measures of exposure were used to assess differences in dosing routes.

[2] = rats, reported; cited from earlier work

F (bioavailability) ([1]; ID (intra-duodenal catheter)): 100%
AUC ([1]; ID (intra-duodenal catheter)): 4943 ng·h/mL
Cmax ([1]; ID (intra-duodenal catheter)): 884 ng/mL
F (bioavailability) ([1]; PO (oral gavage)): 21%
AUC ([1]; PO (oral gavage)): 998 ng·h/mL
Cmax ([1]; PO (oral gavage)): 243 ng/mL
Substance: ibrutinib
oral bioavailability [2]: 22.8%
